Assay results reported in PMC8708751, “Hit Identification of a Novel Quinazoline Sulfonamide as a Promising EphB3 Inhibitor: Design, Virtual Combinatorial Library, Synthesis, Biological Evaluation, and Docking Simulation Studies” (Pharmaceuticals, 2021).
Where two headings read alike, the source gives them in different places.

Assays:
EGFR kinase = molecular target: T1, EGFR kinase (Homo sapiens, UniProt P00533); test: EGFR kinase inhibition assay (HotSpot); assay type: biochemical
T1 construct: purchased Reaction Biology Co. (Kinase HotSpot service)

KDR/VEGFR2 = molecular target: T2, KDR/VEGFR2 (Homo sapiens, UniProt P35968); test: Kinase panel assay, KDR/VEGFR2; assay type: biochemical; conditions: KDR/VEGFR2, 10 µM; read-out: Average % Enzyme Inhibition (Relative to DMSO Controls) at 10 µM
T2 construct: purchased Reaction Biology Co. (Kinase HotSpot service)
Description: (§1) The screening of the tested compounds was performed using the Kinase HotSpot^SM service from Reaction Biology Co. (http://www.reactionbiology.com, accessed on 25 September 2021). The HotSpot assay platform contains specific kinase/substrate pairs along with required cofactors. Base reaction buffer: 20 mM Hepes (pH 7.5), 10 mM MgCl2, 1 mM EGTA, 0.02% Brij35, 0.02 mg/mL BSA, 0.1 mM Na3VO4, 2 mM DTT, 1% DMSO. The tested compounds were dissolved in 100% DMSO to specific concentration. The serial dilution was conducted by Integra Viaflo Assist in DMSO (Sigma-Aldrich, Burlington, MA, USA). The reaction mixture containing the examined compound and 33P-ATP was incubated at room temperature for 2 h, and radioactivity was detected by filter-binding method. Kinase activity data were expressed as the percent remaining kinase activity in test samples compared to vehicle (dimethyl sulfoxide) reactions. IC50 values and curve fits were obtained using Prism (GraphPad Software, San Diego, CA, USA).

EphB4 = molecular target: T3, EphB4 (Homo sapiens, UniProt P54760); test: Kinase panel assay, EphB4; assay type: biochemical
T3 construct: purchased Reaction Biology Co. (Kinase HotSpot service)
T3 sequence (P54760 16-987): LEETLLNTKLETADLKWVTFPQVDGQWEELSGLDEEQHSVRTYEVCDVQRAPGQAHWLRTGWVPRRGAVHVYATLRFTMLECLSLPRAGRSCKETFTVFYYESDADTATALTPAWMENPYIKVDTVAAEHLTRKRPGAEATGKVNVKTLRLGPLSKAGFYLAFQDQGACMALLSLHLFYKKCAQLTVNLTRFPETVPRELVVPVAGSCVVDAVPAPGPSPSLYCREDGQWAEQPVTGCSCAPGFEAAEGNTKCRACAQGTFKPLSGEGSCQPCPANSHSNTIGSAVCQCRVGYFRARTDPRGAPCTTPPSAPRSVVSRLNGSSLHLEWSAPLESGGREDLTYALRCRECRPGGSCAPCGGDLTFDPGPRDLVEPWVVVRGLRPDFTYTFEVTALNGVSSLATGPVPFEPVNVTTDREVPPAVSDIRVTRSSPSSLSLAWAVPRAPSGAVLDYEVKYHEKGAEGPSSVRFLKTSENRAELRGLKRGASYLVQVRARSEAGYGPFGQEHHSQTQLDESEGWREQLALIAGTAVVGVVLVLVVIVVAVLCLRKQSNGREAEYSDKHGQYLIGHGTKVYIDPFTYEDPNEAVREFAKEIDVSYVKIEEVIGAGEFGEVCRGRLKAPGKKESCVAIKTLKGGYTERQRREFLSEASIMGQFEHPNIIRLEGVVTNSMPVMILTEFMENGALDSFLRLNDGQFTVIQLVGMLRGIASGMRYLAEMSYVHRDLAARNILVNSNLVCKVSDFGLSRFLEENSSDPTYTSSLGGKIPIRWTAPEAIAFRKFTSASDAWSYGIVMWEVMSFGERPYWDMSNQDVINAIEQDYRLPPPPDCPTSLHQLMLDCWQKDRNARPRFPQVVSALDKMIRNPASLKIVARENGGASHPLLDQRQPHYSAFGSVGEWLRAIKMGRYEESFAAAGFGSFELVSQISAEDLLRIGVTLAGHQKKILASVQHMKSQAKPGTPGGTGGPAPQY
Description: as §1, with “The” for “The screening of the tested compounds was performed using the Kinase HotSpot^SM service from Reaction Biology Co. (http://www.reactionbiology.com, accessed on 25 September 2021). The”

T1 sequence (P00533 25-1210): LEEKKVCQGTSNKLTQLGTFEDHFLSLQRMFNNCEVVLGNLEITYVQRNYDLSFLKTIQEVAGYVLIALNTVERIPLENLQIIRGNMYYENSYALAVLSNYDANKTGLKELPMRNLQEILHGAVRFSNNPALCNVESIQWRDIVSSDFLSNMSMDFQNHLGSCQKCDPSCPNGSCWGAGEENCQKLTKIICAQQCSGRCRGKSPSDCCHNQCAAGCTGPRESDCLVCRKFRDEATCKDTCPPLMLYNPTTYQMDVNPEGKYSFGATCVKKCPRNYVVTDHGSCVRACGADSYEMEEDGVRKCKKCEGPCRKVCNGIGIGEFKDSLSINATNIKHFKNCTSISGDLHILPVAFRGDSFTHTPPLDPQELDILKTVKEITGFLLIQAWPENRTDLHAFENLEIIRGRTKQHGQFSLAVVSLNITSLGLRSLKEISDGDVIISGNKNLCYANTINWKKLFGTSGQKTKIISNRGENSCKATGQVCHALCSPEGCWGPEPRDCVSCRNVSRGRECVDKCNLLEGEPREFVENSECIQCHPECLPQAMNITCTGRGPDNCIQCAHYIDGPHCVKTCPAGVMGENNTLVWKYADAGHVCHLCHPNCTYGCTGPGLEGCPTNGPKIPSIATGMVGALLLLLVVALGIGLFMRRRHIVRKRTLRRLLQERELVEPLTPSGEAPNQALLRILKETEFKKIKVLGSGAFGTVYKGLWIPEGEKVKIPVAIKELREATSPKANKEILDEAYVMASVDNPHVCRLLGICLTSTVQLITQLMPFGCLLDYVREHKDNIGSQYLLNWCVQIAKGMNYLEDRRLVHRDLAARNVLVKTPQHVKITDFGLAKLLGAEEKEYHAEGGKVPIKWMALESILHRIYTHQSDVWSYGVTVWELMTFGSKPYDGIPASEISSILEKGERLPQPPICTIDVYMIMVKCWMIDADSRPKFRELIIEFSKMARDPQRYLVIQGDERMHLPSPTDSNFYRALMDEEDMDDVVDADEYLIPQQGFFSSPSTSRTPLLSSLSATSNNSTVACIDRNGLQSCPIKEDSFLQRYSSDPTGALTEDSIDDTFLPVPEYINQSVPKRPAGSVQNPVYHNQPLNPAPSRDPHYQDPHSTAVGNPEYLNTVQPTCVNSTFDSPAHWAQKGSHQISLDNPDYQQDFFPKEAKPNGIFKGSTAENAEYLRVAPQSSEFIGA
T2 sequence (P35968 20-1356): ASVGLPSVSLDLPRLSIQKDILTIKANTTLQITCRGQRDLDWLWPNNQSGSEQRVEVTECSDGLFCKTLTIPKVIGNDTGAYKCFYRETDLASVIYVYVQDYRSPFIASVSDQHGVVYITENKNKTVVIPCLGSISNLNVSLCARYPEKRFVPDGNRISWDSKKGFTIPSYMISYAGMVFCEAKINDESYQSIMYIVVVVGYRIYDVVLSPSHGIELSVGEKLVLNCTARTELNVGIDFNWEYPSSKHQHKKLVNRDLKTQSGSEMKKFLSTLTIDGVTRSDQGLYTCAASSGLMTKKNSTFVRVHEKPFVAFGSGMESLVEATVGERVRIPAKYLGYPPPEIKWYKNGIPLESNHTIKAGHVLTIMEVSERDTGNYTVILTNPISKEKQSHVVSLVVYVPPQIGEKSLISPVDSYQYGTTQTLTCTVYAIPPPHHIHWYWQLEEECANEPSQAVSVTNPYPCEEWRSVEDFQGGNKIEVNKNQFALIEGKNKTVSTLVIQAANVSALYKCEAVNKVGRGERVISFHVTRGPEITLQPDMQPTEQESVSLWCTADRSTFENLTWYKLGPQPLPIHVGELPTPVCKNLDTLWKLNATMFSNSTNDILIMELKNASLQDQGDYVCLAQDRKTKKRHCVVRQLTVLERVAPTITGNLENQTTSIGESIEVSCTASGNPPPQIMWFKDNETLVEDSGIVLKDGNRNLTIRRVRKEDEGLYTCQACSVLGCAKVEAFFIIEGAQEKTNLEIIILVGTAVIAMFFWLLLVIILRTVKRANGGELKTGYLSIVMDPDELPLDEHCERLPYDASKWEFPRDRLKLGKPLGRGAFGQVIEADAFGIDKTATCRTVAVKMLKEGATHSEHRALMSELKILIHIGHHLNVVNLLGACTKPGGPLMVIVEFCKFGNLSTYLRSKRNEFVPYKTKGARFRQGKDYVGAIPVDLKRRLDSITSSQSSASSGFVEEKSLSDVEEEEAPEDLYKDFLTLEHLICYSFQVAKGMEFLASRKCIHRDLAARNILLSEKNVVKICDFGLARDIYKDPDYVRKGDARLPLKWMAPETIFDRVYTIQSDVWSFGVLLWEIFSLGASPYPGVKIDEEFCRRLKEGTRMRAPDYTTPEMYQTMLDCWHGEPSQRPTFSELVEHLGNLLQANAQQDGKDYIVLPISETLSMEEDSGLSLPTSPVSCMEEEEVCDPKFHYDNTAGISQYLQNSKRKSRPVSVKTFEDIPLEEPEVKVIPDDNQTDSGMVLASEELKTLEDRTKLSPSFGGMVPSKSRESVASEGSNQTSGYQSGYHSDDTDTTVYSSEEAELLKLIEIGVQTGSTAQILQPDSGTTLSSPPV

inhibition at 10 µM (EGFR kinase; EGFR kinase, 10 µM compound, 10 µM ATP as printed, read-out: Average % Enzyme Inhibition (Relative to DMSO Controls) at 10 µM): 46.8 ± 0.54%
IC50 (EGFR kinase; EGFR kinase, dose dependent assay, read-out: IC50): 8.04 µM
IC50 (EGFR kinase; EGFR, read-out: EC50 of the curve fit printed in Figure 6 (IC50 per legend)): 8.04 µM
inhibition at 10 µM (KDR/VEGFR2): 47.8%
inhibition at 10 µM (EphB4; EphB4, 10 µM, read-out: Average % Enzyme Inhibition (Relative to DMSO Controls) at 10 µM): 70.2 ± 3.64%
IC50 (EphB4; EphB4, dose-dependent assay): 3.98 µM
melting point: 313.2 to 315.1 °C
Compound: NS(=O)(=O)c1ccc(Nc2ncnc3ccc(-c4cccc(O)c4)cc23)cc1 [Compound 4c, 4-((6-(3-Hydroxyphenyl)quinazolin-4-yl)amino)benzenesulfonamide]
